# Source: US20230085307A1, “PYRIDAZINONE COMPOUND AND HERBICIDE” (NISSAN CHEMICAL CORPORATION, priority 2019, published 2023)
# Tests used:
# [1] = test system: barnyard grass; assay: Test Example 3: herbicidal effect by foliage application, Wagner pot (Table 18, symbol H); type: in vivo, barnyard grass (Echinochloa crus-galli)
# Outline: (§1)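 Plants were sown in alluvial soil held under 0.1–0.5 cm standing water and grown 14 days in a greenhouse at 25–30 °C. An emulsifiable formulation, water-diluted to the set dose, was then sprayed onto the foliage, and effects were scored three weeks later using previously defined criteria.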
# [2] = test system: Chinese sprangletop; assay: Test Example 3: herbicidal effect by foliage application, Wagner pot (Table 18, symbol D); type: in vivo, chinese sprangletop (Leptochloa chinensis)
# Outline: as §1
# [3] = test system: rice flat sedge; assay: Test Example 3: herbicidal effect by foliage application, Wagner pot (Table 18, symbol E); type: in vivo, rice flat sedge (Cyperus iria)
# Outline: as §1
# [4] = test system: southern crabgrass; assay: Test Example 4: herbicidal effect by soil treatment (Table 19, symbol F); type: in vivo, southern crabgrass (Digitaria ciliaris); conditions: amount of applied herbicide 320 g/ha
# Outline: (§2)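 Soil-surface application: an emulsion agent diluted with water to the predetermined dose is sprayed uniformly over seeds lying under roughly 1.5 cm of sterilized diluvial soil. Boxes stay in a greenhouse at 25° C. to 30° C. Three weeks later, each species is graded on previously defined criteria.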
# [5] = test system: green foxtail; assay: Test Example 4: herbicidal effect by soil treatment (Table 19, symbol G); type: in vivo, green foxtail (Setaria viridis); conditions: amount of applied herbicide 320 g/ha
# Outline: as §2
# [6] = test system: barnyard grass; assay: Test Example 4: herbicidal effect by soil treatment (Table 19, symbol H); type: in vivo, barnyard grass (Echinochloa crus-galli); conditions: amount of applied herbicide 320 g/ha
# Outline: as §2
# [7] = test system: wild oat; assay: Test Example 4: herbicidal effect by soil treatment (Table 19, symbol I); type: in vivo, wild oat (Avena fatua); conditions: amount of applied herbicide 320 g/ha
# Outline: as §2
# [8] = test system: blackgrass; assay: Test Example 4: herbicidal effect by soil treatment (Table 19, symbol J); type: in vivo, blackgrass (Alopecurus myosuroides); conditions: amount of applied herbicide 320 g/ha
# Outline: as §2
# [9] = test system: Italian ryegrass; assay: Test Example 4: herbicidal effect by soil treatment (Table 19, symbol K); type: in vivo, Italian ryegrass (Lolium multiflorum); conditions: amount of applied herbicide 320 g/ha
# Outline: as §2
# [10] = test system: windgrass; assay: Test Example 4: herbicidal effect by soil treatment (Table 19, symbol L); type: in vivo, windgrass (Apera spica-venti); conditions: amount of applied herbicide 320 g/ha
# Outline: as §2
# [11] = test system: velvetleaf; assay: Test Example 4: herbicidal effect by soil treatment (Table 19, symbol M); type: in vivo, velvetleaf (Abutilon theophrasti); conditions: amount of applied herbicide 320 g/ha
# Outline: as §2
# [12] = test system: redroot pigweed; assay: Test Example 4: herbicidal effect by soil treatment (Table 19, symbol N); type: in vivo, redroot pigweed (Amaranthus retroflexus); conditions: amount of applied herbicide 320 g/ha
# Outline: as §2
# [13] = test system: lambsquarters; assay: Test Example 4: herbicidal effect by soil treatment (Table 19, symbol O); type: in vivo, lambsquarters (Chenopodium album); conditions: amount of applied herbicide 320 g/ha
# Outline: as §2
# [14] = test system: chickweed; assay: Test Example 4: herbicidal effect by soil treatment (Table 19, symbol P); type: in vivo, common chickweed (Stellaria media); conditions: amount of applied herbicide 320 g/ha
# Outline: as §2
# [15] = test system: persian speedwell; assay: Test Example 4: herbicidal effect by soil treatment (Table 19, symbol R); type: in vivo, Persian speedwell (Veronica persica); conditions: amount of applied herbicide 320 g/ha
# Outline: as §2
# [16] = test system: southern crabgrass; assay: Test Example 5: herbicidal effect by foliage application, plastic box (Table 20, symbol F); type: in vivo, southern crabgrass (Digitaria ciliaris); conditions: 320 g/ha, evaluated three weeks after application
# Outline: (§3)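 Sow seeds spot-wise in sterilized diluvial soil; cover with ~1.5 cm soil. Grow 14 days in greenhouse, 25° C. to 30° C. Spray foliage with emulsion diluted to predetermined amount. Rate effect after 3 weeks.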
# [17] = test system: green foxtail; assay: Test Example 5: herbicidal effect by foliage application, plastic box (Table 20, symbol G); type: in vivo, green foxtail (Setaria viridis); conditions: 320 g/ha, evaluated three weeks after application
# Outline: as §3
# [18] = test system: barnyard grass; assay: Test Example 5: herbicidal effect by foliage application, plastic box (Table 20, symbol H); type: in vivo, barnyard grass (Echinochloa crus-galli); conditions: 320 g/ha, evaluated three weeks after application
# Outline: as §3
# [19] = test system: wild oat; assay: Test Example 5: herbicidal effect by foliage application, plastic box (Table 20, symbol I); type: in vivo, wild oat (Avena fatua); conditions: 320 g/ha, evaluated three weeks after application
# Outline: as §3
# [20] = test system: blackgrass; assay: Test Example 5: herbicidal effect by foliage application, plastic box (Table 20, symbol J); type: in vivo, blackgrass (Alopecurus myosuroides); conditions: 320 g/ha, evaluated three weeks after application
# Outline: as §3
# [21] = test system: Italian ryegrass; assay: Test Example 5: herbicidal effect by foliage application, plastic box (Table 20, symbol K); type: in vivo, Italian ryegrass (Lolium multiflorum); conditions: 320 g/ha, evaluated three weeks after application
# Outline: as §3
# [22] = test system: windgrass; assay: Test Example 5: herbicidal effect by foliage application, plastic box (Table 20, symbol L); type: in vivo, windgrass (Apera spica-venti); conditions: 320 g/ha, evaluated three weeks after application
# Outline: as §3
# [23] = test system: velvetleaf; assay: Test Example 5: herbicidal effect by foliage application, plastic box (Table 20, symbol M); type: in vivo, velvetleaf (Abutilon theophrasti); conditions: 320 g/ha, evaluated three weeks after application
# Outline: as §3
# [24] = test system: redroot pigweed; assay: Test Example 5: herbicidal effect by foliage application, plastic box (Table 20, symbol N); type: in vivo, redroot pigweed (Amaranthus retroflexus); conditions: 320 g/ha, evaluated three weeks after application
# Outline: as §3
# [25] = test system: lambsquarters; assay: Test Example 5: herbicidal effect by foliage application, plastic box (Table 20, symbol O); type: in vivo, lambsquarters (Chenopodium album); conditions: 320 g/ha, evaluated three weeks after application
# Outline: as §3
# [26] = test system: chickweed; assay: Test Example 5: herbicidal effect by foliage application, plastic box (Table 20, symbol P); type: in vivo, common chickweed (Stellaria media); conditions: 320 g/ha, evaluated three weeks after application
# Outline: as §3
# [27] = test system: persian speedwell; assay: Test Example 5: herbicidal effect by foliage application, plastic box (Table 20, symbol R); type: in vivo, Persian speedwell (Veronica persica); conditions: 320 g/ha, evaluated three weeks after application
# Outline: as §3
# [28] = foliage application after 14-day growth
# [29] = amount of applied herbicide 320 g/ha
smiles,measurement,setting,value
Cc1nn(C)c(=O)c(-c2c(-c3ccc(OC(F)(F)F)cc3)sc3c(F)cccc23)c1O [4-048],herbicidal effect on barnyard grass (H),[1]; 320 g/ha,5 (Herbicidal rate of 90% or more (almost completely withered))
same,herbicidal effect on Chinese sprangletop (D),[2]; 320 g/ha,5 (Herbicidal rate of 90% or more (almost completely withered))
same,herbicidal effect on rice flat sedge (E),[3]; 320 g/ha,5 (Herbicidal rate of 90% or more (almost completely withered))
same,"Herbicidal effect by soil treatment, F: southern crabgrass",[4],1 (Herbicidal rate of 5% or more and less than 20%)
same,"Herbicidal effect by soil treatment, G: green foxtail",[5],0 (Herbicidal rate of 5% or less (almost no effect))
same,"Herbicidal effect by soil treatment, H: barnyard grass",[6],2 (Herbicidal rate of 20% or more and less than 40%)
same,"Herbicidal effect by soil treatment, I: wild oat",[7],0 (Herbicidal rate of 5% or less (almost no effect))
same,"Herbicidal effect by soil treatment, J: blackgrass",[8],0 (Herbicidal rate of 5% or less (almost no effect))
same,"Herbicidal effect by soil treatment, K: Italian ryegrass",[9],0 (Herbicidal rate of 5% or less (almost no effect))
same,"Herbicidal effect by soil treatment, L: windgrass",[10],0 (Herbicidal rate of 5% or less (almost no effect))
same,"Herbicidal effect by soil treatment, M: velvetleaf",[11],0 (Herbicidal rate of 5% or less (almost no effect))
same,"Herbicidal effect by soil treatment, N: redroot pigweed",[12],3 (Herbicidal rate of 40% or more and less than 70%)
same,"Herbicidal effect by soil treatment, O: lambsquarters",[13],1 (Herbicidal rate of 5% or more and less than 20%)
same,"Herbicidal effect by soil treatment, P: chickweed",[14],1 (Herbicidal rate of 5% or more and less than 20%)
same,"Herbicidal effect by soil treatment, R: persian speedwell",[15],5 (Herbicidal rate of 90% or more (almost completely withered))
same,herbicidal effect on F: southern crabgrass (evaluation grade 0-5),[16]; [28],1 (Herbicidal rate of 5% or more and less than 20%)
same,herbicidal effect on G: green foxtail (evaluation grade 0-5),[17]; [28],5 (Herbicidal rate of 90% or more (almost completely withered))
same,herbicidal effect on H: barnyard grass (evaluation grade 0-5),[18]; [28],5 (Herbicidal rate of 90% or more (almost completely withered))
same,herbicidal effect on I: wild oat (evaluation grade 0-5),[19]; [28],3 (Herbicidal rate of 40% or more and less than 70%)
same,herbicidal effect on J: blackgrass (evaluation grade 0-5),[20]; [28],0 (Herbicidal rate of 5% or less (almost no effect))
same,herbicidal effect on K: Italian ryegrass (evaluation grade 0-5),[21]; [28],4 (Herbicidal rate of 70% or more and less than 90%)
same,herbicidal effect on L: windgrass (evaluation grade 0-5),[22]; [28],5 (Herbicidal rate of 90% or more (almost completely withered))
same,herbicidal effect on M: velvetleaf (evaluation grade 0-5),[23]; [28],3 (Herbicidal rate of 40% or more and less than 70%)
same,herbicidal effect on N: redroot pigweed (evaluation grade 0-5),[24]; [28],5 (Herbicidal rate of 90% or more (almost completely withered))
same,herbicidal effect on O: lambsquarters (evaluation grade 0-5),[25]; [28],3 (Herbicidal rate of 40% or more and less than 70%)
same,herbicidal effect on P: chickweed (evaluation grade 0-5),[26]; [28],5 (Herbicidal rate of 90% or more (almost completely withered))
same,herbicidal effect on R: persian speedwell (evaluation grade 0-5),[27]; [28],5 (Herbicidal rate of 90% or more (almost completely withered))
CCCC(=O)Oc1c(C)nn(C)c(=O)c1-c1c(-c2ccc(F)cc2)sc2ccc(C)cc12 [2-135],herbicidal effect on H: barnyard grass,[1]; [29],1 (Herbicidal rate of 5% or more and less than 20%)
same,herbicidal effect on D: Chinese sprangletop,[2]; [29],0 (Herbicidal rate of 5% or less (almost no effect))
same,herbicidal effect on E: rice flat sedge,[3]; [29],3 (Herbicidal rate of 40% or more and less than 70%)
same,"F: southern crabgrass, herbicidal effect rating",[4],0 (Herbicidal rate of 5% or less (almost no effect))
same,"G: green foxtail, herbicidal effect rating",[5],0 (Herbicidal rate of 5% or less (almost no effect))
same,"H: barnyard grass, herbicidal effect rating",[6],0 (Herbicidal rate of 5% or less (almost no effect))
same,"I: wild oat, herbicidal effect rating",[7],0 (Herbicidal rate of 5% or less (almost no effect))
same,"J: blackgrass, herbicidal effect rating",[8],0 (Herbicidal rate of 5% or less (almost no effect))
same,"K: Italian ryegrass, herbicidal effect rating",[9],1 (Herbicidal rate of 5% or more and less than 20%)
same,"L: windgrass, herbicidal effect rating",[10],0 (Herbicidal rate of 5% or less (almost no effect))
same,"M: velvetleaf, herbicidal effect rating",[11],0 (Herbicidal rate of 5% or less (almost no effect))
same,"N: redroot pigweed, herbicidal effect rating",[12],0 (Herbicidal rate of 5% or less (almost no effect))
same,"O: lambsquarters, herbicidal effect rating",[13],0 (Herbicidal rate of 5% or less (almost no effect))
same,"P: chickweed, herbicidal effect rating",[14],3 (Herbicidal rate of 40% or more and less than 70%)
same,"R: persian speedwell, herbicidal effect rating",[15],0 (Herbicidal rate of 5% or less (almost no effect))
same,herbicidal effect on F: southern crabgrass,[16]; foliage application,0 (Herbicidal rate of 5% or less (almost no effect))
same,herbicidal effect on G: green foxtail,[17]; foliage application,0 (Herbicidal rate of 5% or less (almost no effect))
same,herbicidal effect on H: barnyard grass,[18]; foliage application,0 (Herbicidal rate of 5% or less (almost no effect))
same,herbicidal effect on I: wild oat,[19]; foliage application,0 (Herbicidal rate of 5% or less (almost no effect))
same,herbicidal effect on J: blackgrass,[20]; foliage application,0 (Herbicidal rate of 5% or less (almost no effect))
same,herbicidal effect on K: Italian ryegrass,[21]; foliage application,3 (Herbicidal rate of 40% or more and less than 70%)
same,herbicidal effect on L: windgrass,[22]; foliage application,0 (Herbicidal rate of 5% or less (almost no effect))
same,herbicidal effect on M: velvetleaf,[23]; foliage application,4 (Herbicidal rate of 70% or more and less than 90%)
same,herbicidal effect on N: redroot pigweed,[24]; foliage application,5 (Herbicidal rate of 90% or more (almost completely withered))
same,herbicidal effect on O: lambsquarters,[25]; foliage application,3 (Herbicidal rate of 40% or more and less than 70%)
same,herbicidal effect on P: chickweed,[26]; foliage application,5 (Herbicidal rate of 90% or more (almost completely withered))
same,herbicidal effect on R: persian speedwell,[27]; foliage application,1 (Herbicidal rate of 5% or more and less than 20%)
